Earlier results as cited in patent US20240226060A1, “TOPICAL LIPOSOME POLYPHENOL COMPOSITIONS FOR TREATING AND PREVENTING VARIOUS SKIN DISORDERS AND METHODS OF PREPARATION THEREOF” (PANAG PHARMA INC., priority 2021, published 2024).
Where two headings read alike, the source gives them in different places.

Key:
[1] = system: CFA-induced arthritis
[2] = system: epidermolysis bullosa; details: CBD oil, 3 patients
[3] = simulated physiological conditions pH 7.4 and 37° C., within 24 hours
[4] = system: facial skin aging; details: 1% apigenin cream, twice daily, 2 and 4 weeks
[5] = not given; remark: listed apart in the source
[6] = system: melasma
[7] = 2% minoxidil in MLVs
[8] = system: facial acne vulgaris; details: for revised Leeds score at week 8: baseline 5.1
[9] = surfactant micelles, U.S. Pat. No. 10,709,748
[10] = twice daily 3 days, 4 hours after last dose
[11] = 1% EGCG, 8 weeks, vs baseline and vehicle

For `C=C(C)[C@@H]1CCC(C)=C[C@H]1c1c(O)cc(CCCCC)cc1O` [CBD, cannabidiol], the “joint swelling and pain” value ([1]; 1% CBD gel on shaved back, 4 days) is listed as “optimally reduced swelling and alleviated pain”, the “joint swelling and pain” value ([1]; 10% CBD gel versus 1%) is listed as “did not yield additional improvement” and the CFA-induced edema ([1]; lower doses (0.1, 0.5% CBD gel)) is listed as “no effect”. For the same molecule, the patient-reported outcome [2] was “faster wound healing, less blistering, and amelioration of pain”, the CBD loss [3] was 10% and the encapsulation efficiency [9] was 86%.
For `CCCCCc1cc(O)c2c(c1)OC(C)(C)[C@@H]1CCC(C)=C[C@@H]21` [THC, tetrahydrocannabinol], the encapsulation efficiency [9] is listed as 92%.
In the case of `O=c1cc(-c2ccc(O)cc2)oc2cc(O)cc(O)c12` [apigenin], the “dermal density, skin elasticity, length of fine wrinkles” value [4] is listed as “Significant improvements”, the “skin moisture content, TEWL and skin texture” value [4] is listed as “significantly improved” and the solubility ([5]; ethanol) is listed as “poor solubility”. For the same molecule, the solubility ([5]; propylene glycol and polyethylene glycol 400) was “superior solubilities”.
In the case of `Oc1ccc(O)cc1` [hydroquinone], the “patients presenting with erythema, burning and scaling” value ([6]; 4% cream in melasma patients) is given as 71% and the “MASI score reduction from baseline” value ([6]; 4% cream, after three months) is given as 39%.
For `Clc1ccc(COC(Cn2ccnc2)c2ccc(Cl)cc2Cl)c(Cl)c1` (stereo not drawn) [miconazole nitrate], the encapsulation efficiency (proliposome method with propylene glycol, El-Khordagui et al) is listed as 95.6%.
For `Nc1cc(N2CCCCC2)nc(N)[n+]1[O-]` [minoxidil], the “drug in cumulative urine samples, liposome versus suspension & solution” value [7] is listed as “significant less drug”, the “drug content in dermis, liposome versus suspension & solution” value [7, 10] is listed as 4-5 fold and the “drug content in epidermis, liposome versus suspension & solution” value [7, 10] is listed as 2-3 fold. The “drug content on skin surface, liposome versus suspension & solution” value [7, 10] was 3-4 fold.
For `CC(=O)[C@H]1CC[C@H]2[C@@H]3CCC4=CC(=O)CC[C@]4(C)[C@H]3CC[C@]12C` [progesterone], the “encapsulation efficiency (EE)” value (DPPC/cholesterol MLVs, thin film hydration, U.S. Pat. No. 4,485,054) is listed as 77%.
In the case of epigallocatechin 3-gallate [EGCG], the “revised Leeds score at week 8” value ([8]; 1% EGCG hydroalcoholic solution) is listed as 1.2, the “mean inflammatory lesion count decrease” value [8, 11] is listed as 89% and the “mean noninflammatory lesion count decrease” value [8, 11] is listed as 79%. The “revised Leeds score at week 8” value ([8]; 5% EGCG hydroalcoholic solution) was 1.7.
In the case of isoscutellarein, the incorporation efficiency (liposomes, 9 parts egg PC to 2 parts flavonoid, Demetzos et al) is given as 95%.
